# According to patent US20060275744A1, “Modified human embryonic stem cells and methods of use to treat neuron-associated disorders” (THE TRUSTEES OF COLUMBIA UNIVERSITY IN THE CITY OF NEW YORK, priority 2004, published 2006):
# Legend:
# [1] = test system: DJ-1 deficient ES cells; experiment: Toxin exposure of DJ-1 deficient versus heterozygous ES cells (MTT, Annexin V/PI FACS, PARP, DHR, protein carbonyls); assay type: cell-based, murine; conditions: for sensitivity of DJ-1 deficient cells to toxin relative to heterozygous cells (cell viability, MTT): 15 hours exposure
# Procedure: We generated cells deficient in DJ-1. cDNA for DJ-1 was PCR amplified from human liver cDNA (Clontech) and cloned into the expression vectors pET-28a (Novagen) or pcDNA3.1 (Invitrogen) using standard techniques. Flag-DJ-1 and all described mutants were generated by PCR-mediated mutagenesis. For protein carbonyl quantization (Bian et al. 2003), cells were plated (1.4×10^5 cells per well), grown for 24 hours, and then treated with 10 mM H2O2 as indicated. Cleared lysate ([…]) from each time point was added to 2 M HCl ([…]) with or without 10 mM DNPH and incubated for 1 h at 24° C. with shaking. Proteins were then TCA precipitated and resuspended in […] 6M Guanidinium Chloride. Absorbance was measured at 360 nm, and DNP-conjugated samples were normalized for protein concentration with the underivitized control samples. Undifferentiated ES cells were cultured using standard techniques (Abeliovich et al. 2000). SDIA differentiation of ES cultures was performed as described (Kawasaki et al. 2000) except that ES cells were plated at a density of 500 cells/cm^2 and cocultured with the MS5 mouse stromal cell line (Barberi et al. 2003). Transfections were performed using Lipofectamine 2000 (Life Technologies) for 18-36 hours as per the manufacturer's instructions (Staropoli et al. 2003). Primary cultures and infections were performed as described (Staropoli et al. 2003). A murine embryonic stem (ES) cell clone, F063A04, that harbors a retroviral insertion at the DJ-1 locus was obtained through the German Gene Trap Consortium (http://tikus.gsf.de) (Floss and Wurst 2002). The pT1ATGβgeo gene trap vector is present between exons 6 and 7 of the murine DJ-1 gene, as determined by cDNA sequencing of trapped transcripts and genomic analysis (FIG. 12A). This integration is predicted to disrupt the normal splicing of DJ-1, leading to the generation of a truncated protein that lacks the carboxy-terminal domain required for dimerization and stability. Of note, a mutation that encodes a similarly truncated protein (at the human DJ-1 exon 7 splice acceptor) has been described in a patient with early-onset PD (Hague et al. 2003).
# To investigate the role of DJ-1 in the oxidative stress response in vivo, DJ-1-deficient homozygous mutant (‘knockout’) cells and DJ-1 heterozygote (‘control’) ES cell clones were analyzed for cell viability in the context of increasing concentrations of H2O2. ES cells plated in 96-well format (2.3×10^4 cells/well) were treated for 15 hours with H2O2 in ES media deficient in b-mercaptoethanol (Abeliovich et al. 2000). Cell viability (as a percent of untreated control) was determined by MTT assay in triplicate (Fezoui et al. 2000). Annexin V/Propidium Iodide (Molecular probes) staining was performed per the manufacturer's instructions. For dihydrorhodamine-123 staining (DHR, Molecular probes) (Walrand et al. 2003), cells were preincubated for 30 min with DHR ([…]), washed with PBS, then treated with H2O2 in ES media deficient in b-mercaptoethanol for 15 min at 37° C. The FACS analysis was performed using a FACSTAR sorter (Becton Dickinson). Dopamine uptake assays were performed essentially as described in Farrer et al. 1998. Reported values represent specific uptake from which non-specific uptake, determined in the presence of mazindol, was subtracted, and normalized for protein content (BCA kit, Pierce).
# Heterozygous cells were used as controls because the ‘knockout’ subclones were derived from these. Cell viability was initially determined by MTT assay in triplicate (Fezoui et al. 2000). […] The increase in AV-positive cells implicated an apoptotic mechanism of cell death (FIG. 12F).
# We quantified the accumulation of ROS in response to H2O2 treatment in mutant and heterozygous control cells using the ROS-sensitive fluorescent indicator dye dihydrorhodamine-123 (DHR) and FACS analysis. […]
# [2] = test system: DY1 ES cells; experiment: Candidate soluble factors in EB or SDIA differentiation of DY1 ES cells; assay type: cell-based, mouse; conditions: for eYFP fluorescence or DAT immunoreactivity: factors added at stages 4-5 of differentiation
# Procedure: FIG. 11. Effect of different soluble factors on the differentiation of DY1 into dopamine neurons with the EB method. (A) eYFP fluorescence or (B) DAT immunoreactivity was quantified by fluorescent confocal microscopy, see text for details. Data represent the mean±SEM. All results were analyzed by ANOVA. The level of significance is indicated where * p≦0.05 and ** p≦0.005.
# We used marked ES-derived ‘late’ dopamine neurons to analyze candidate soluble and cell-associated factors in the differentiation process. […] Briefly, DY1 ES cells were differentiated using EB or SDIA and candidate factors were added to the standard differentiation protocol at stages 4-5 of differentiation (Lee et al., 2000).
# We have tested additional candidate factors that are implicated in the differentiation of dopamine neurons and other CNS neuron classes. For instance, the Notch pathway plays an inhibitory role in early neuronal fate determination in uncommitted proliferative cells including neuronal stem cells (Bixby et al., 2002), as well as inhibitory roles in later events such as neurite outgrowth (Berezovska et al., 1999) in hippocampal cells. […] Another multifunctional factor in the early and late determination of neurons is neuregulin, which inhibits neurogenesis early but subsequently plays a role promoting synapse formation at certain CNS and PNS synapses (Buonanno and Fischbach, 2001). Neuregulin1-β1 appears to have increased the propensity of ES cultures to differentiate into DAT-positive cells.
# [3] = test system: DJ-1 deficient dopamine neurons; experiment: 6-OHDA exposure of ES-derived dopamine neuron cultures, dopamine uptake assay; assay type: cell-based, murine; conditions: cultures at 9 DIV, 72 hours exposure
# Source text: FIG. 14. DJ-1 Deficient ES Cultures Display Reduced Dopamine Neuron Production. (A) The SDIA coculture method. ES cells are cocultured with mouse stromal cells (MS5) in the absence of serum and LIF for 18 days in vitro (DIV). (B) Dopamine neuron production was quantified at 18 DIV by [^3H] dopamine uptake assay. DJ-1 deficient ES cultures were defective relative to heterozygous control cultures. (C-D) Neuron production was quantified by immunohistochemical analysis as a percent of Tuj1-positive colonies that express tyrosine hydroxylase (TH) or GAB A. Quantification of TH and GABA immunostaining was performed on all colonies in each of three independent wells. Colonies were scored as positive if any immunostained cells were present. […] (F) Kinetic analysis of dopamine neuron differentiation in DJ-1 deficient cultures (clone 32, solid square) and heterozygous controls (open circle) as quantified by dopamine uptake assay. […] Dopamine neurons were quantified by dopamine uptake assay. Data represent the means±SEM and were analyzed by ANOVA followed by Fisher's post-hoc test. *, p≦0.05.
# To investigate the role of DJ-1 in the oxidative stress response in vivo, DJ-1-deficient homozygous mutant (‘knockout’) cells and DJ-1 heterozygote (‘control’) ES cell clones were analyzed for cell viability in the context of increasing concentrations of H2O2. […]
# [4] = biological target: Nurr1 + PitX3 (Homo sapiens, UniProt P43354;O75364 P43354:1-598,O75364:1-302); experiment: EMSA; cooperative binding of Nurr1 and PitX3; conditions: tags: reticulocyte lysate; also nuclear extracts of EB-differentiated ES cultures; annealed oligonucleotides with overhangs
# Procedure: Electrophoretic mobility shift assays (EMSA) were performed using an EMSA kit (Novagen) as per the manufacturer's instructions with annealed oligonucleotides for wild-type human DAT promoter sequences (5′-GTCTACTGGATAAGAGCCCGAGGCCGAGGCTGAGACCG-3′ (SEQ ID NO:14) and 5′-CTCAGCCTCGGCCTCGGGCTCTTATCCAGTAGACAGGGT-3′ (SEQ ID NO:15)) or mutant human DAT promoter sequences (5′-GTCTACTGGATGGGAGCCCGATTCCGAGGCTGAGACCG-3′ (SEQ ID NO:16) and 5′-CTCAGCCTCGGAATCGGGCTCCCATCCAGTAGACAGGGT-3′ (SEQ ID NO:17)).
# [5] = test system: MM13 cells; experiment: GDNF and BDNF treatment of virally transduced MM13 cells, real-time rtPCR; assay type: cell-based, murine; conditions: 10 ng/ml during EB stage 4
# Procedure: FIG. 23. PitX3 and Nurr1 coordinately regulate extrinsic factor signaling pathways in EB-differentiated ES cultures. […] (B) PitX3 and Nurr1 co-overexpression expands cells that are sensitive to BDNF and GDNF treatment as quantified by rtPCR for the late marker DAT but not the early marker TH. […] Virally transduced MM13 cells were treated with GDNF and BDNF (both 10 ng/ml, from R&D system) during EB stage 4; real-time rtPCR levels are presented as a percentage of the value obtained double (Nurr1 and PitX3) transduction after normalization with β-actin.
molecule,measurement,setting,value
"[Cl][Cu][Cl] [copper, CuCl2]","sensitivity of DJ-1 deficient cells to toxin relative to heterozygous cells (cell viability, MTT)",[1],sensitized
Sonic Hedgehog,eYFP fluorescence or DAT immunoreactivity,[2],significant increase
C[C@@H]1C[C@@H]([C@H](O)CC2CC(=O)NC(=O)C2)C(=O)[C@@H](C)C1 [cycloheximide],"sensitivity of DJ-1 deficient cells to toxin relative to heterozygous cells (cell viability, MTT)",[1],did not observe altered sensitivity
tunicamycin,"sensitivity of DJ-1 deficient cells to toxin relative to heterozygous cells (cell viability, MTT)",[1],did not observe altered sensitivity
Jagged: soluble receptor Jagged (R&D Systems) protein used to inhibit Notch signaling,terminally differentiated dopamine neurons,[2]; inhibiting Notch signaling with soluble protein,significant increase
CN[C@@H]1C[C@H]2O[C@@](C)([C@@H]1OC)n1c3ccccc3c3c4c(c5c6ccccc6n2c5c31)C(=O)NC4 [staurosporine],"sensitivity of DJ-1 deficient cells to toxin relative to heterozygous cells (cell viability, MTT)",[1],did not observe altered sensitivity
"OO [H2O2, hydrogen peroxide]",accumulation of protein carbonyls,[1],normal
same,protein carbonyl accumulation,[1],robustly increased
same,"initial ROS accumulation (DHR, FACS)","[1]; 15 minutes after stimulation, DJ-1 deficient versus heterozygous cells",unaltered
same,"sensitivity of DJ-1 deficient cells to toxin relative to heterozygous cells (cell viability, MTT)",[1],significantly greater toxicity in DJ-1 deficient cells
same,cleavage of Poly(ADP-ribose)polymerase-1 (PARP),[1]; knockout cells,potentiated cleavage
same,"cell death, Annexin V and propidium iodide FACS",[1]; knockout relative to heterozygous cells,increased cell death of knockout cells
"NCCc1cc(O)c(O)cc1O [6-OHDA, 6-hydroxydopamine]",sensitivity of DJ-1 deficient dopamine neurons to oxidative stress (dopamine uptake assay),[3],increased sensitivity
CC(=O)N[C@@H](CSC(=O)[C@]1([C@@H](O)C(C)C)NC(=O)[C@H](C)[C@@H]1O)C(=O)O [lactacystin],"sensitivity of DJ-1 deficient cells to toxin relative to heterozygous cells (cell viability, MTT)",[1],sensitized
human DAT promoter wild-type EMSA oligo (dsDNA) DNA 1: GTCTACTGGATAAGAGCCCGAGGCCGAGGCTGAGACCG DNA 2: CTCAGCCTCGGCCTCGGGCTCTTATCCAGTAGACAGGGT,binding result,[4],binds
"FGF-8: fibroblast growth factor-8, candidate soluble factor added to ES differentiation (protein, UniProt P55075 23-233, looked up) Fibroblast growth factor 8: QEGPGRGPALGRELASLFRAGREPQGVSQQHVREQSLVTDQLSRRLIRTYQLYSRTSGKHVQVLANKRINAMAEDGDPFAKLIVETDTFGSRVRVRGAETGLYICMNKKGKLIAKSNGKGKDCVFTEIVLENNYTALQNAKYEGWYMAFTRKGRPRKGSKTRQHQREVHFMKRLPRGHHTTEQSLRFEFLNYPPFTRSLRGSQRTWAPEPR",eYFP fluorescence or DAT immunoreactivity,[2],significant increase
"BDNF: brain-derived neurotrophic factor, from R&D system (protein, UniProt P23560 19-247, looked up) Neurotrophic factor BDNF …: APMKEANIRGQGGLAYPGVRTHGTLESVNGPKAGSRGLTSLADTFEHVIEELLDEDQKVRPNEENNKDADLYTSRVMLSSQVPLEPPLLFLLEEYKNYLDAANMSMRVRRHSDPARRGELSVCDSISEWVTAADKKTAVDMSGGTVTVLEKVPVSKGQLKQYFYETKCNPMGYTKEGCRGIDKRHWNSQCRTTQSYVRALTMDSKKRIGWRFIRIDTSCVCTLTIKRGR",expression of Nurr1 and PitX3,[5],fails to induce
"GDNF: glial cell-line-derived neurotrophic factor, from R&D system (protein, UniProt P39905 78-211, looked up) Glial cell line-derived …: SPDKQMAVLPRRERNRQAAAANPENSRGKGRRGQRGKNRGCVLTAIHLNVTDLGLGYETKEELIFRYCSGSCDAAETTYDKILKNLSRNRRLVSDKVGQACCRPIAFDDDLSFLDDNLVYHILRKHSAKRCGCI",expression of Nurr1 and PitX3,[5],fails to induce
